From patent US20060112446A1, “Transposon genes of rice, transformed plant and method of use” (priority 2001, published 2006) come the findings set out here.

Test [1] concerns transposon gene with the nucleotide sequence of Sequence Number 3 in scutellum-derived calli. Description: PCR detection of deletion (transposition) of the autonomous transposon gene in scutellum-derived calli treated with 5-azacytidine (Example 9). The format is cell-based, rice (Oryza sativa), cultivar Nihonbare. The settings on record: for The frequency of deletion (calli with deletion/calli examined) / The frequency of deletion (percent): scutellum-derived Nihonbare calli, 2 weeks growth culture. As to the method: In this example, we examined the transposition activity of the nucleotide sequence of Sequence Number 3 in anther-derived calli and in scutellum-derived calli treated with 5-azacytidine.
Seeds of Nihonbare, a rice cultivar, were sterilized in3% sodium hypochlorite solution for 15˜30 min, washed with sterilized water, inoculated on a 90×20 mm of Petri dish (Iwaki Co.) with 20˜30 ml of media at the rate of 9 seeds per dish and subjected to induction culture under light for 24 h at 30° C. Used was a solid medium consisting of 4 g of CHU (N6) BASAL SALT MIXTURE® (Sigma Co.), 1 ml of MS VITAMIN SOLUTION® (Sigma Co.), 2 mg of 2,4-dichloro-phenoxyacetic acid (Sigma Co.), 0.3 g of casamino acids (DIFCO), 0.1 g of myo-inositol (Sigma Co.), 2.878 g proline (Wako), 30 g of sucrose (Wako), 2 g of GELRITE® (Wako) in 1 L of medium. On the 10th day of inductive culture, the calli derived from induced seeds were transferred to a growth medium supplemented with 5-azacytidine (Sigma) at 0 mM, 0.1 mM or 0.5 mM and were subjected to growth culture underlight for 24 h at 33° C. Used was a solid medium consisting of 4 g of CHU (N6) BASAL SALT MIXTURE® (Sigma Co.), 1 ml of MS VITAMIN SOLUTION® (Sigma Co.), 2 mg of 2,4-dichloro-phenoxyacetic acid (Sigma Co.), 0.3 g of casamino acids (DIFCO), 0.1 g of myo-inositol (Sigma Co.), 2.878 g proline (Wako), 30 g of sucrose (Wako), 2 g of GELRITE® (Wako) in 1 L of medium. DNA was extracted from calli derived from seeds in growth culture for two weeks by DNEASY PLANT MINI KIT® (Qiagen).
To amplify the DNA region containing the transposon DNA by PCR, we used the oligonucleotides comprising the sequences of Sequence Numbers 26 and 27 as PCR primers. Each reaction mixture (100 μl) contained 200 ng of DNA, 2.5 units of TAKARA LA TAQ® (Takara Co.), 10 μl of 10× LA PCR bufferII, 6 µl of 25 mM MgCl2, 8 μl of dNTP Mixture (2.5mM each dNTP) and 100 pmol of primers. Each cycle of the polymerase reaction consisted of a denaturation step at 94° C. for 30 sec and an extension step at 68° C. for 12 min. This cycle was repeated 35 times. After the reaction, PCR products were separated on 0.8% LO3 AGAROSE® (Takara Co.) gel electrophoresis.

The test system of test [2] is transposon gene (430 bp, Sequence Number 1) in calli derived from Nihonbare seeds. The test can be described thus: PCR detection of deletion (transposition) of the nonautonomous transposon gene in seed-derived calli grown on 5-azacytidine medium (Example 5). The format is cell-based, rice (Oryza sativa), cultivar Nihonbare. As to the method:
Seeds of Nihonbare were sterilized in 3% sodium hypochlorite solution for 15˜30 min, washed with sterilized water, inoculated on a 90×20 mm of Petri dish (Iwaki Co.) containing 20˜30 ml of media at the rate of 9 seeds per dish and subjected to induction culture under light for 24 h at 30° C. We used a solid medium consisting of 4 g of CHU (N6) BASAL SALT MIXTURE® (Sigma Co.), 1 ml of MS VITAMIN SOLUTION® (Sigma Co.), 2 mg of 2,4-dichloro-phenoxyacetic acid (Sigma Co.), 0.3 g of casamino acids (DIFCO), 0.1 g of myo-inositol (Sigma Co.), 2.878 g proline (Wako), 30 g of sucrose (Wako), 2 g of Gelrite® (Wako) in 1 L of medium.
After several days, calli were started forming from scutellum inside rice seeds and changed to cream-colored ones with 5 mm length on the 10th day of culture. The creamy-colored calli with 5mm length were transplanted to growth media supplemented with 5-azacytidine (Sigma Co.) at either 0 mM, 0.01 mM, 0.03 mM, 0.05 mM, 0.1 mM or 0.3 mM, respectively, and subjected to growth culture under light for 24 h at 30° C. We used a solid medium consisting of 4 g of CHU (N6) BASAL SALT MIXTURE® (Sigma Co.), 1 ml of MS VITAMIN SOLUTION® (Sigma Co.), 2 mg of 2, 4-dichloro-phenoxyacetic acid (Sigma Co.), 0.3 g of casamino acids (DIFCO), 0.1 g of myo-inositol (Sigma Co.), 2.878 g proline (Wako), 30 g of sucrose (Wako), 2 g of GELRITE® (Wako) in 1 L of medium. […]

With `Nc1ncn([C@@H]2O[C@H](CO)[C@@H](O)[C@H]2O)c(=O)n1` [5-azacytidine], the “The frequency of deletion (calli with deletion/calli examined)” value in test [1] (0.1 mM 5-azacytidine) was 2/8; in test [1] (0.5 mM 5-azacytidine), 7/8. Besides, the figures for the “The frequency of deletion (percent)” value in test [1] (0.1 mM 5-azacytidine) and in test [1] (0.5 mM 5-azacytidine) were “(25%)” and “(87.5%)”, respectively. The “Transposition of the transposon gene of Sequence Number 3” value in test [1] (scutellum-derived calli treated with 5-azacytidine) is given as “high frequency of transposition”. Also, the “DNA bands in PCR of the region containing the transposon gene (approx. 300 bp band = transposon gene deleted)” value in test [2] (seed-derived Nihonbare calli, 0.03 mM-0.3 mM 5-azacytidine in growth medium, 2 weeks growth culture) was “Two DNA bands of approximately 730 bp and 300 bp were observed”. Further, in test [2] (seed-derived calli, 5-azacytidine treatment), the “Induction of transposition of the transposon gene” value was “could be induced even for seed-derived calli”.
